Values quoted from earlier work as cited in patent publication US6627427B1, “Heterologous production of 15-methyl-6-deoxyerthronolide B” (Kosan Biosciences, Inc., priority 1999, dated 2003).

Experiments:
Gram-positive pathogens = conditions: including those carrying inducible MLS resistance and many S. pneumoniae and S. pyogenes strains carrying constitutive MLS resistance
[1] = statement with reference to PCT publications

| SMILES | activity against Gram-positive pathogens (Gram-positive pathogens) | antibiotic activity [1] |
| --- | --- | --- |
| CC[C@H]1OC(=O)[C@H](C)C(=O)[C@H](C)[C@@H](O[C@@H]2O[C@H](C)C[C@H](N(C)C)[C@H]2O)[C@](C)(OC/C=C/c2cnc3ccccc3c2)C[C@@H](C)C(=O)[C@H](C)[C@H]2NC(=O)O[C@@]21C [ABT-773] | excellent activity | – |
| CC[C@H]1OC(=O)[C@H](C)C(=O)[C@H](C)[C@@H](O[C@@H]2O[C@H](C)C[C@H](N(C)C)[C@H]2O)[C@](C)(OC)C[C@@H](C)C(=O)[C@H](C)[C@H]2N(CCCCn3cnc(-c4cccnc4)c3)C(=O)O[C@]12C [HMR 3647] | excellent activity | – |
| CCC[C@H]1OC(=O)[C@H](C)[C@@H](O[C@@H]2C[C@@](C)(OC)[C@@H](O)[C@H](C)O2)[C@H](C)[C@@H](O[C@@H]2O[C@H](C)C[C@H](N(C)C)[C@H]2O)[C@](C)(O)C[C@@H](C)C(=O)[C@H](C)[C@@H](O)[C@]1(C)O [Propyl erythromycin A, 15-methylerythromycin A] | – | potent antibiotic activity |
